Reference: patent US20260327211A1, “MODULATORS OF A POTASSIUM CHANNEL AND OF TRPV1 CHANNEL AND USES THEREOF” (Bsense Bio Therapeutics Ltd., priority 2023, published 2026)
≈ marks a conversion by molar mass, not a printed value. Where two headings read alike, the source gives them in different places.

What was measured:
hKv7.2/3 = target: T1, hKv7.2/3 (Homo sapiens, UniProt O43525+O43526); experiment: Kv7.2/7.3 HCS, FLIPR potassium (thallium) assay, CHO/hKv7.2/3; assay type: cell-based; details: for EC50: Table 1, read-out: Kv7.2/7.3 IC50
T1 construct: host or cells: CHO
T1 sequence (O43525 whole entry): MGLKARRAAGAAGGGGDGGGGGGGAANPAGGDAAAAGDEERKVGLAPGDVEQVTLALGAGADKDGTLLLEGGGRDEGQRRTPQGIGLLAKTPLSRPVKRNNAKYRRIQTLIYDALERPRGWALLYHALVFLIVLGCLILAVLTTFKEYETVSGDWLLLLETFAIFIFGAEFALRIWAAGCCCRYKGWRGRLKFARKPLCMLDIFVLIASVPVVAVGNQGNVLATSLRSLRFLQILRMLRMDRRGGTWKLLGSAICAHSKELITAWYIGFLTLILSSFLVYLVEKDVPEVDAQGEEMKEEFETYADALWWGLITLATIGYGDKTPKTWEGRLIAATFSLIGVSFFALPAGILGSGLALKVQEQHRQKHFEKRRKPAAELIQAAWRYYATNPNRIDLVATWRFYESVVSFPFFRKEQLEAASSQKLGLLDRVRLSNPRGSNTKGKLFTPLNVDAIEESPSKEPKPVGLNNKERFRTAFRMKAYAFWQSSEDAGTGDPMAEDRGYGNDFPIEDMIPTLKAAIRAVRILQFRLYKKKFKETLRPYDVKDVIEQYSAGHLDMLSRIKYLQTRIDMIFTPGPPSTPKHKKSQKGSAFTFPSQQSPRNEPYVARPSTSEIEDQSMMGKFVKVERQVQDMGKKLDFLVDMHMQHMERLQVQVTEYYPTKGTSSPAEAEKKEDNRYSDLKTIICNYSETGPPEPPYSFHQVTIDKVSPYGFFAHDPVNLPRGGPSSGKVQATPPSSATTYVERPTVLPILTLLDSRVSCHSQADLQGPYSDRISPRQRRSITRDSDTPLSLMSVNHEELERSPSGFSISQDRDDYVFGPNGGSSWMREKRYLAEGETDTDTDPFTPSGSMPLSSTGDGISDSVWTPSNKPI
T1 sequence (O43526 whole entry): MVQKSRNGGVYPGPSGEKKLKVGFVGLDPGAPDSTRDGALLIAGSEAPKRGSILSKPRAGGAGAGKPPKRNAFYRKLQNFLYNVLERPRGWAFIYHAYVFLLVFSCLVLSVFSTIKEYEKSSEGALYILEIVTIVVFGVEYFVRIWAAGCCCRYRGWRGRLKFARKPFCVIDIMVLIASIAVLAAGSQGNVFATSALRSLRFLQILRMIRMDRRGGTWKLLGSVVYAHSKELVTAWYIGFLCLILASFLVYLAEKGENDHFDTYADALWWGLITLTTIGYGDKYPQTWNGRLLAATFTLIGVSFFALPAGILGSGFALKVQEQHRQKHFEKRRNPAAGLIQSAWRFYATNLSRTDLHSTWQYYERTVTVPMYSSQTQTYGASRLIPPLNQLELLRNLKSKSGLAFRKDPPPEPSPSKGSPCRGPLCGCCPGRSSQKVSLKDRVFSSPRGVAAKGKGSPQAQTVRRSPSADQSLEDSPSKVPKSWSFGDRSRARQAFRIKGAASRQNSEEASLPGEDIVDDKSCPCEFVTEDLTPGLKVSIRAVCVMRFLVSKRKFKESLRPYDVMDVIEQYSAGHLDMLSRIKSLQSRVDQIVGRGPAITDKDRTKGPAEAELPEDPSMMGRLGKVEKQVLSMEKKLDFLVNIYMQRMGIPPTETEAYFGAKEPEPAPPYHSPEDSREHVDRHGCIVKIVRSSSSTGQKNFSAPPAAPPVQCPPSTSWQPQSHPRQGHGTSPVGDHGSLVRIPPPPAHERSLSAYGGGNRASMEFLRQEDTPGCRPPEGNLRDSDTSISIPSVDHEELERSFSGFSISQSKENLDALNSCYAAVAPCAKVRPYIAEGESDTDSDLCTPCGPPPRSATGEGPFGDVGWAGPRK
Protocol: Cell culture: Chinese hamster ovary (CHO) cell-line cells with a constitutive expression of human Kv7.2/3 channels (B'SYS GmbH, Switzerland) were cultured in F-12 nutrient mixture (Biological Industries) supplemented with 10% fetal bovine serum (Biological Industries) and 1% penicillin-streptomycin (Biological Industries) in a humidified 5% CO2 incubator at 37° C. To maintain the stability of human Kv7.2/7.3 expression antibiotic selection was added (Puromycin 5 μg/ml).
High content screen (HCS) using FLIPR Potassium Assay Kit: A FLIPR Potassium Assay Kit (R8222 FLIPR Potassium Assay Explorer Kits, Molecular Devices) was used with the CHO/hKv7.2/3 cell line to screen molecules against the hKv7.2/7.3 ion channel target. The assay exploits the permeability of thallium ions (Tl+) through potassium (K+) channels. In this assay, Tl+ indicator dye is used to produce a bright fluorescent signal upon the binding to Tl+ conducted through the potassium channels. The intensity of the Tl+ signal is proportional to the number of potassium channels in the open state. Therefore, it provides a functional indication of the potassium channel activity. To activate the voltage-gate potassium channels, the cells were stimulated with a mixture of K+ and Tl+ to depolarize the cell membrane. The fluorescence increase in the assay represents the influx of Tl+ into the cell specifically through the potassium channel, providing a functional read-out of hKv7.2/3 activity using a fluorescent plate reader coupled with injectors used to activate the channels.
According to optimization process to achieve uniform and consistent screening conditions the following protocol was established: Cells were seeded in 384-well, black-walled, clear-bottomed Greiner #781091, at a density of 5000 cells per well 24 hours before the assay conductance and incubated overnight in their normal growth medium. On the experiment day the medium was replaced with HBSS, HEPES, and the test compound/vehicle (0.2% DMSO). Dye solution (prepared according to the manufacturer) was added to the plates, which were incubated for 1.5 h light-protected in room temperature. Tecan Spark reader plate injectors were primed with Tl+(1 mM Tl2SO4) or Tl++K+(1 mM Tl2SO4; 5 mM K2SO4) for channel activation and data correction. […] To calculate EC50 values, the data was fitted to sigmoidal regression using Prism GraphPad. The fitting was constrained to a minimum of 1 and a maximal response of about 3.6 unless a different maximal response could be clearly identified.

[1] = Log D, 1-octanol/buffer shake flask; assay type: physicochemical; details: pH 7.4
Protocol: The Log D assay was a miniaturized 1-octanol/buffer shake flask method followed by LC/MS/MS analysis, as follows.
The test compounds or control compounds Nadolol, Chlorpromazine Hydrochloride and Propranolol Hydrochloride were dissolved in 100% DMSO to obtain 10 mM solutions, which were transferred to 96-well polypropylene cluster tubes; 2 μL/well. 1-octanol saturated with 0.1 M phosphate buffer (149 μL/well) and 0.1 M phosphate buffer saturated with 1-octanol (149 μL/well) were added to the tubes, respectively, and each tube was vigorously mixed for 2 minutes and then shaked at a speed of 800 rpm at room temperature for 1 hour, followed by centrifugation at 4000 rpm for 5 minutes at room temperature. Thereafter, for the test compounds and the Chlorpromazine Hydrochloride and Propranolol Hydrochloride, the sample of the buffer layer was diluted by a factor of 50-fold and the sample of 1-octanol layer was diluted by a factor of 2000-fold with internal standard (IS) solution. For Nadolol, the sample of the buffer layer was diluted by a factor of 1000-fold and the sample of 1-octanol layer was diluted by a factor of 400-fold with internal standard (IS) solution. The samples were analyzed using a triple quadrupole mass spectrometer. Peak areas were corrected by dilution factors and embedded internal standard, and the ratio of the corrected peak areas was used to calculate the Log D value. The Log D value for each compound will be calculated by the following equation: […]

Kinetic solubility = assay type: physicochemical; details: Table 1; for solubility kinetic: hhbs buffer, aqueous buffer, read-out: Kinetic Sol.
Protocol: Solubility measurements were performed prior to each in vitro assay to ensure accurate dose response and reproducibility. Briefly, each compound was dissolved to 60 mM in DMSO and calibration curve was performed from 1.5-200 μM using absorbance spectra analysis and determination of λmax. Calibration curve served as the readout for all following assays. The 60 mM stock solution was used to make a 120 μM target concentration of 0.2% DMSO in the appropriate buffer of the in vitro related assay (i.e. HHBS buffer). Solubilized compounds were vortex for 10 minutes followed by centrifugation for 15 minutes in 5000 RPM and the supernatant was recovered for absorbance spectra analysis between 200-400 nm.

[2] = Human liver microsome metabolic stability; assay type: in vitro ADME; details: human liver microsomes; for microsomal CLint at 1 µM: read-out: HLM Clint; for HLM Clint: 1 µM
From the text: Liver microsomes which are subcellular particles derived from endoplasmic reticulum of hepatic cells were used for evaluating the tested compounds. These particles are rich in drug metabolizing enzymes, including the cytochrome p-450 family. Liver microsomes are a recommended test system for various in vitro drug metabolism and pharmacokinetics (DMPK) studies. CLint values lower than […] are considered suitable for drug development.
Liver Microsome Metabolic Stability Assay (NADPH): The liver microsome stability assay was evaluated through pre-incubation with HLMs. A liver microsome mixture (pooled from multiple donors) at a concentration of 0.5 mg/mL, and the test compound at a concentration of 1 μM, were warmed in the presence of a NADPH regenerating system (about 1.0 mM) at 37° C. Positive controls, including testosterone (a CYP3A4 substrate), propafenone (a CYP2D6 substrate), and diclofenac (a CYP2C9) substrate, were concurrently incubated with the HLMs, in the presence of the NADPH regenerating system (1.0 mM). Samples were extracted during incubation at multiple intervals: 0, 5, 15, 30, 45 and 60 minutes. To terminate the reactions, the samples were promptly mixed with cooled acetonitrile that included an internal standard (IS). An additional compound was incubated with the HLMs in the absence of the NADPH regeneration system, from which a sample was taken at the 60-minute interval.
The clearance of the test compound in the samples was subsequently analyzed by LC-MS/MS based on the peak area ratios of the analyte to the IS.
The following equation was used to calculate the microsome clearance: […]
Liver weight: 40 grams/kg, 30 grams/kg, 32 grams/kg, 20 grams/kg and 88 grams/kg, for rat, monkey, dog, human and mouse, respectively.

hTRPV1 = target: T2, hTRPV1 (Homo sapiens, UniProt Q8NER1); experiment: TRPV1 HCS, Fluo-8 calcium flux, capsaicin activation, CHO cells expressing hTRPV1; assay type: cell-based
T2 construct: CDS of NM_080704.4, inserted into the multiple cloning site of pcDNA3.1(+); host or cells: CHO/hKv7.2/3
T2 sequence (Q8NER1 whole entry): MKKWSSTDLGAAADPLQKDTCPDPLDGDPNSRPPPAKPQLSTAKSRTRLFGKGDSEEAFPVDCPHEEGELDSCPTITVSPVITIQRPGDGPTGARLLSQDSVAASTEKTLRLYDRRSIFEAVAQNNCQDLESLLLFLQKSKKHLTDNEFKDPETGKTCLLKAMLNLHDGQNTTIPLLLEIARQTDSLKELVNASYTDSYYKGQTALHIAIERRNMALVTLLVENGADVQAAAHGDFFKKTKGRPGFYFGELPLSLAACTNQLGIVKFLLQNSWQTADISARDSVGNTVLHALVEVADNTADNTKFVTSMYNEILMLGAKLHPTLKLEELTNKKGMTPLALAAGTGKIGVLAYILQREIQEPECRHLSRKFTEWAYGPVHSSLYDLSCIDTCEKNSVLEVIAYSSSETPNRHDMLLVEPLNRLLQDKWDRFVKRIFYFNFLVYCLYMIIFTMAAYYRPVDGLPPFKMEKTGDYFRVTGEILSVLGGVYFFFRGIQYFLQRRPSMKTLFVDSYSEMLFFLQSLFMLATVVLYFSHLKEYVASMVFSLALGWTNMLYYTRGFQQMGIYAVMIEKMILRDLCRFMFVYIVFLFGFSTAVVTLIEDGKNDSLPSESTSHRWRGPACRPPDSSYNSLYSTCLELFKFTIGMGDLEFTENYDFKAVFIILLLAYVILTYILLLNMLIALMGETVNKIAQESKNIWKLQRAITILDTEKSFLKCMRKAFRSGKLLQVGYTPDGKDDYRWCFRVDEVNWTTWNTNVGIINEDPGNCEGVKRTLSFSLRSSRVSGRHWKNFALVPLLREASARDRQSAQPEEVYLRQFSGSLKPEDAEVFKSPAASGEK
Protocol: Cell culture: Chinese hamster ovary (CHO) cell-line cells with constitutive expression of human hTRPV1 channels (B'SYS GmbH, Switzerland) were cultured in F-12 nutrient mixture (Biological Industries) supplemented with 10% fetal bovine serum (Biological Industries) and 1% penicillin-streptomycin (Biological Industries) in a humidified 5% CO2 incubator at 37° C. To maintain the stable expression of hTRPV1, antibiotic selection (G418 500 μg/ml) was applied.
High content screen (HCS) using Fluo-8 No Wash Calcium flux Assay Kit: Fluo-8 No Wash Calcium Assay Kit (Abcam, ab112129) was used with CHO stably or transiently expressing TRPV1 to screen compounds against the hTRPV1 ion channel target. The cells were pre-loaded with Fluo-8AM which is membrane permeable. The AM groups of the Fluo-8AM were then being cleaved by intracellular esterase, trapping the Fluo8 in the cell. […] The relative fluorescence signal was calculated following background subtraction, comparing the fluorescence at each time point to its maximal level measured following Ionomycin application in the end.
According to optimization process to achieve uniform and consistent screening condition of molecules the following protocol was established: Cells were seeded in 384-well, black-walled, clear-bottomed, at a density of 5,000 cells per well 24 h before the assay conductance and incubated overnight in their normal growth medium. On the experiment day the medium was replaced in each well with HBSS, HEPES, and compound/vehicle (0.2% DMSO). Dye solution (prepared according to the manufacturer) was added to the wells and plates are incubated for 1.5 h light-protected in room temperature. The Tecan Spark plate reader injectors were then primed with capsaicin and Ionomycin for channel activation and data normalization, respectively. […] To calculate IC50 values, the data was fitted to sigmoidal regression line using Prism GraphPad. The fitting was constrained to a minimum of 0 and a maximal response of about 1 unless a different maximal response could be identified.

hERG = hERG (Homo sapiens, UniProt Q12809); experiment: hERG HCS, FLIPR potassium assay, CHO/hERG; assay type: cell-based; design: host or cells: CHO; details: Table 1; for IC50: read-out: hERG IC50; for hERG IC50 (inhibition in parentheses): at highest concentration shown
Chain of hERG (Q12809 whole entry): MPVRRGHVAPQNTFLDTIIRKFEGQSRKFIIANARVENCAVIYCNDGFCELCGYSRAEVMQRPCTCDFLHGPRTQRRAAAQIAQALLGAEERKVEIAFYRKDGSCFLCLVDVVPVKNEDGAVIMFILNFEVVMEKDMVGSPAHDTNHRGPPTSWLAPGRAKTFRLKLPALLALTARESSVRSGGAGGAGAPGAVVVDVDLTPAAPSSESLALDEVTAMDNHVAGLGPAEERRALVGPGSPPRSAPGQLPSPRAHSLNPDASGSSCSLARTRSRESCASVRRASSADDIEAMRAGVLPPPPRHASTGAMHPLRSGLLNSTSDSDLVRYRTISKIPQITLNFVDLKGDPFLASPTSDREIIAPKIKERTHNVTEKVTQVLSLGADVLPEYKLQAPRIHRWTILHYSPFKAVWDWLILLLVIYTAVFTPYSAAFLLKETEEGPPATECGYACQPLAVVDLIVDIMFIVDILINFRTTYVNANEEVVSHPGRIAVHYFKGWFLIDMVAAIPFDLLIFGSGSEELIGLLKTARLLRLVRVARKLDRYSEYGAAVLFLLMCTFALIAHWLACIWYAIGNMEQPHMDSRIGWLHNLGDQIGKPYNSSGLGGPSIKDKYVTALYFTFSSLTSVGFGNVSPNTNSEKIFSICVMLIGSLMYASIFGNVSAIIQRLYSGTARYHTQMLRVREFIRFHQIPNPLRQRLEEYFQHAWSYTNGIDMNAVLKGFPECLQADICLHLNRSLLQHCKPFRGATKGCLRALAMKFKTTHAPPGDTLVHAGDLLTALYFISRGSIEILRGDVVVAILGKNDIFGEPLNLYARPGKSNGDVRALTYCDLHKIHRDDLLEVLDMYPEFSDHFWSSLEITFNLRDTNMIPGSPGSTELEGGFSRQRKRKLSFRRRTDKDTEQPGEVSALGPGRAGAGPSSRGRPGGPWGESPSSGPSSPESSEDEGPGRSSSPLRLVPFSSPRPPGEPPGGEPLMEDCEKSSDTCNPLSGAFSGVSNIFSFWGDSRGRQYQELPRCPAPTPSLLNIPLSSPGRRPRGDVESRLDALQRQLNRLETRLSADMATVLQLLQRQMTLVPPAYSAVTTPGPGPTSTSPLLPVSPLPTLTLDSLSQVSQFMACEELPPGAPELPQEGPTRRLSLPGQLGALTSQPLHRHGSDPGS
Protocol: Cell culture: Chinese hamster ovary (CHO) cell-line cells with a constitutive expression of human hERG channels (B'SYS GmbH, Switzerland) were cultured in F-12 nutrient mixture (Biological Industries) supplemented with 10% fetal bovine serum (Biological Industries) and 1% penicillin-streptomycin (Biological Industries) in a humidified 5% CO2 incubator at 37° C. To maintain the hERG expression stability of the CHO cell line, antibiotics selection (G418 […] and Hygromycin 500) was applied.
FLIPR Potassium Assay Kit: The FLIPR Potassium Assay Kit (R8222 FLIPR Potassium Assay Explorer Kits, Molecular Devices) was used with CHO/hERG cell line, for screening compounds against the hERG ion-channel off-target, as detailed hereinabove.
According to optimization process, to achieve a uniform and consistent screening condition of molecules, the following protocol was established: Cells were seeded in 384-well, black-walled, clear-bottomed, at a density of 7,500 cells per well 24 hours before the assay conductance and incubated overnight in their normal growth medium. On the experiment day the medium was replaced with HBSS, HEPES, and the tested compound/vehicle (0.2% DMSO). Dye solution (prepared according to the manufacturer) was added to the wells and plates were incubated for 1.5 hour light-protected in room temperature. The Tecan Spark plate-reader injectors were primed with Tl+(1 mM Tl2SO4) or Tl++K+(1 mM Tl2SO4; 10 mM K2SO4) for channel activation and data correction. […]. To calculate IC50 values, the data was fitted to sigmoidal regression using Prism GraphPad.

[3] = 1-octanol/phosphate buffer, read-out: LogD
[4] = cells expressing TRPV1, read-out: TRPV1 IC50

Structure (SMILES) | EC50 (hKv7.2/3) | logD [1, 3] | solubility kinetic (Kinetic solubility) | microsomal CLint at 1 µM [2] | IC50 (hTRPV1; [4]) | also measured
O=C(Cc1cncc(-n2cc(Cl)c3cc(Cl)cc(Cl)c32)c1)N[C@H]1COC[C@@H]1O [Compound 663] | 5.9 µM | 3.52 | 26 µM (≈ 11.5 µg/mL) | 53.6 µL/min/mg | – | –
O=C(Cc1cncc(-n2cc(Cl)c3cc(Cl)cc(Cl)c32)c1)N[C@@H]1COC[C@@H]1O [Compound 662] | 8 µM | 3.49 | 6 µM (≈ 2.64 µg/mL) | 38.1 µL/min/mg | – | TRPV1 IC50 (hTRPV1; cells expressing TRPV1): agonist
CC(C)c1cc(Cl)cc(Cl)c1C(O)c1ccc(F)c(CC(=O)NCC(C)(C)O)c1 (stereo not drawn) [Compound 417] | 5.6 µM | – | – | 89.1 µL/min/mg | 26.6 µM | IC50 (hERG): > 2.5 µM; hERG IC50 (inhibition in parentheses) (hERG): 0%
Cc1cn(-c2ccc(F)c(CC(=O)NCCOCCOCC(C)(C)O)c2)c2c(Cl)cc(Cl)cc12 [Compound 541] | 4.7 µM | – | – | – | 3.2 µM | logD [1]: 4.78; Kinetic Sol. (Kinetic solubility): 2; HLM Clint [2]: 772.2 µL/min/mg
CC(C)c1cc(Cl)cc(Cl)c1C(=O)c1ccc(F)c(CC(=O)NCC2(O)CCC2)c1 [Compound 569] | 3 µM | 4.47 | 27 µM (≈ 12.2 µg/mL) | 120 µL/min/mg | 10 µM | –
CC(C)c1cc(Cl)cc(Cl)c1C(=O)c1ccc(F)c(CC(=O)NCC2(O)CC2)c1 [Compound 573] | 7 µM | 4.34 | 24 µM (≈ 10.5 µg/mL) | 441 µL/min/mg | 3 µM | –
CC(C)c1cc(Cl)cc(Cl)c1Sc1ccc(F)c(CC(=O)N[C@H]2C[C@H](O)C2)c1 [Compound 480] | – | – | – | – | – | IC50 (hTRPV1): 1.4 µM
Cc1cn(-c2ccc(F)c(CC(=O)NCCO)c2)c2c(Cl)cc(Cl)cc12 [Compound 552] | 12 µM | – | – | – | 1 µM | logD [1]: 4.77; Kinetic Sol. (Kinetic solubility): 5; HLM Clint [2]: 27.2 µL/min/mg
COC[C@@H](CO)NC(=O)Cc1cc(Sc2c(Cl)cc(Cl)cc2C(C)C)ccc1F [Compound 414] | 1.8 µM | – | – | 686 µL/min/mg | 1.1 µM | IC50 (hTRPV1; Table 2, read-out: Experimental IC50): 1.1 µM; IC50 (hERG): > 2.5 µM; hERG IC50 (inhibition in parentheses) (hERG): 0%
CC(C)c1cc(Cl)cc(Cl)c1C(O)c1ccc(F)c(CC(=O)NCC2(O)CCC2)c1 (single isomer, unassigned) [Compound 533p1] | – | – | – | – | – | TRPV1 modulation (words) (hTRPV1): inhibits hTRPV1; TRPV1 modulation (words) (hTRPV1; listed as 533P1): TRPV1 inhibition; Kv7.2/3 activation (words) (hKv7.2/3): lower; Kv7.2/3 activation (words) (hKv7.2/3; listed as 533P1): primarily activation of Kv7.2/3
